Measurements: PubChem BioAssay (NCI)
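These data come from cells grown in 96-well plates and exposed to compound for 48 hours at five concentrations. TGI is the concentration that stops growth completely.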

Legend:
Assay in all cases: NCI anticancer screen, dose series, 48 h
NCI-H460 lung = tested on: NCI-H460 lung
U251 CNS = tested on: U251 CNS
MOLT-4 leukemia = tested on: MOLT-4 leukemia
UACC-62 melanoma = tested on: UACC-62 melanoma
SNB-19 CNS = tested on: SNB-19 CNS
SF-539 CNS = tested on: SF-539 CNS
CCRF-CEM leukemia = tested on: CCRF-CEM leukemia
OVCAR-3 ovarian = tested on: OVCAR-3 ovarian
SW-620 colon = tested on: SW-620 colon
MDA-MB-231 breast = tested on: MDA-MB-231 breast

O=S(=O)(O)c1cc(S(=O)(=O)O)c2cc(N=Nc3ccc(N=Nc4ccc(/C=C/c5ccc(N=[N+]([O-])c6ccc(/C=C/c7ccc(N=Nc8ccc(N=Nc9ccc%10cc(S(=O)(=O)O)cc(S(=O)(=O)O)c%10c9)cc8)cc7S(=O)(=O)O)c(S(=O)(=O)O)c6)cc5S(=O)(=O)O)c(S(=O)(=O)O)c4)cc3)ccc2c1
TGI (NCI-H460 lung): > 100 µM
TGI (U251 CNS): > 100 µM
TGI (MOLT-4 leukemia): > 100 µM
TGI (UACC-62 melanoma): 65.4 µM
TGI (SNB-19 CNS): > 100 µM
TGI (SF-539 CNS): > 100 µM
TGI (CCRF-CEM leukemia): > 100 µM
TGI (OVCAR-3 ovarian): > 31.6 µM

CSc1ccc(N2C(=O)C3c4[nH]c5ccccc5c4C4CCC(C(C)(C)C)CC4C3C2=O)cc1 (stereo not given)
TGI (NCI-H460 lung): 34.4 µM
TGI (U251 CNS): 31.5 µM
TGI (MOLT-4 leukemia): 31.7 µM
TGI (UACC-62 melanoma): 28.9 µM
TGI (SW-620 colon): > 100 µM
TGI (SNB-19 CNS): 45.2 µM
TGI (SF-539 CNS): 43.1 µM
TGI (CCRF-CEM leukemia): 23.5 µM
TGI (OVCAR-3 ovarian): > 100 µM

O=C1Sc2ccccc2C(=O)N2CCSC12 (stereo not given)
TGI (NCI-H460 lung): > 100 µM
TGI (U251 CNS): > 100 µM
TGI (MOLT-4 leukemia): > 100 µM
TGI (UACC-62 melanoma): > 100 µM
TGI (SW-620 colon): > 100 µM
TGI (SNB-19 CNS): > 100 µM
TGI (CCRF-CEM leukemia): > 100 µM
TGI (OVCAR-3 ovarian): > 100 µM

NS(=O)(=O)c1ccc(-c2ccc([As](=O)(O)O)cc2)cc1
TGI (NCI-H460 lung): > 100 µM
TGI (U251 CNS): > 100 µM
TGI (MOLT-4 leukemia): > 100 µM
TGI (UACC-62 melanoma): > 100 µM
TGI (MDA-MB-231 breast): > 100 µM
TGI (SW-620 colon): > 100 µM
TGI (SNB-19 CNS): > 100 µM
TGI (SF-539 CNS): > 100 µM
TGI (OVCAR-3 ovarian): > 100 µM

O=C1CCC2(O)c3ccccc3C2Cc2ccccc21 (stereo not given)
TGI (NCI-H460 lung): > 100 µM
TGI (U251 CNS): > 100 µM
TGI (MOLT-4 leukemia): > 100 µM
TGI (UACC-62 melanoma): > 100 µM
TGI (SW-620 colon): > 100 µM
TGI (SNB-19 CNS): > 100 µM
TGI (SF-539 CNS): > 100 µM
TGI (CCRF-CEM leukemia): > 100 µM
TGI (OVCAR-3 ovarian): > 100 µM

CCOP(=O)(OCC)C(Nc1ccc(Cl)cc1)c1ccc(F)cc1 (stereo not given)
TGI (NCI-H460 lung): 48.2 µM
TGI (U251 CNS): 41.3 µM
TGI (MOLT-4 leukemia): 61.7 µM
TGI (UACC-62 melanoma): 29.3 µM
TGI (MDA-MB-231 breast): 74.6 µM
TGI (SNB-19 CNS): > 100 µM
TGI (SF-539 CNS): 49 µM
TGI (CCRF-CEM leukemia): 93.1 µM
TGI (OVCAR-3 ovarian): > 100 µM

O=C(CC(=O)N1N=C(c2ccccc2)C(N=Nc2ccc(S(=O)(=O)CCOS(=O)(=O)O)cc2)C1=O)Nc1ccc(Cl)cc1 (stereo not given)
TGI (NCI-H460 lung): > 100 µM
TGI (U251 CNS): > 100 µM
TGI (MOLT-4 leukemia): > 100 µM
TGI (UACC-62 melanoma): > 100 µM
TGI (MDA-MB-231 breast): > 100 µM
TGI (SNB-19 CNS): > 100 µM
TGI (SF-539 CNS): > 100 µM
TGI (CCRF-CEM leukemia): > 100 µM
TGI (OVCAR-3 ovarian): > 100 µM

O/N=C1\C/C(=N\O)c2c(Br)sc(Br)c21
TGI (NCI-H460 lung): > 100 µM
TGI (U251 CNS): > 100 µM
TGI (MOLT-4 leukemia): 92.7 µM
TGI (UACC-62 melanoma): > 100 µM
TGI (MDA-MB-231 breast): > 100 µM
TGI (SW-620 colon): 72.7 µM
TGI (SF-539 CNS): > 100 µM
TGI (CCRF-CEM leukemia): 37.3 µM
TGI (OVCAR-3 ovarian): > 100 µM

CCCN=C1NC(C)=CSC(Nc2ccccc2)=C1C#N
TGI (U251 CNS): > 100 µM
TGI (MOLT-4 leukemia): > 100 µM
TGI (UACC-62 melanoma): > 100 µM
TGI (MDA-MB-231 breast): > 100 µM
TGI (SW-620 colon): > 100 µM
TGI (SNB-19 CNS): > 100 µM
TGI (SF-539 CNS): > 100 µM
TGI (OVCAR-3 ovarian): > 100 µM

COC(=O)N[C@@H]1C[C@H]2CC[C@]1(O[Si](C(C)C)(C(C)C)C(C)C)C(=O)C2
TGI (NCI-H460 lung): > 100 µM
TGI (MOLT-4 leukemia): > 100 µM
TGI (UACC-62 melanoma): 44.7 µM
TGI (MDA-MB-231 breast): 76.5 µM
TGI (SW-620 colon): > 100 µM
TGI (SNB-19 CNS): 39.5 µM
TGI (CCRF-CEM leukemia): > 100 µM
TGI (OVCAR-3 ovarian): 39.7 µM

Cc1cn(C2CC(O)C(Cn3nncc3Cn3nc(Br)c(=O)[nH]c3=O)O2)c(=O)[nH]c1=O (stereo not given)
TGI (U251 CNS): > 100 µM
TGI (MOLT-4 leukemia): > 100 µM
TGI (UACC-62 melanoma): > 100 µM
TGI (MDA-MB-231 breast): > 100 µM
TGI (SW-620 colon): > 100 µM
TGI (SNB-19 CNS): > 100 µM
TGI (SF-539 CNS): > 100 µM
TGI (CCRF-CEM leukemia): > 100 µM
TGI (OVCAR-3 ovarian): > 100 µM
